What all share (format): cell-based
The subject of experiment [1] is HT-29 human colon adenocarcinoma. The experiment can be described thus: Cell growth inhibition, HT-29 cells.
For experiment [2], the system named is BxPC3, carcinoma of pancreas. The experiment can be described thus: Cell growth inhibition, BxPC3 cells. The settings on record: Homo sapiens, read-out: IC50, BxPC3, pancreas.
The test system of the next experiment is JB6c141 rat skin cells. The experiment is described as follows: Colony Formation Assay (soft agar assay for colony formation). The settings on record: 100 micromolar, 14 days, with or without epidermal growth factor. The source says:
The Colony Formation Assay, also known as “soft agar assay for colony formation” as described by David Bowtell (accessed on the Internet as recently as on Dec. 29, 2003 at http://grimwade.biochem.unimelb.edu.au/bowtell/cellbiol/sect71.htm) was also used to asses the neoplastic cell growth inhibitory effect of these compounds and using the JB6c141 rat skin cells. Briefly, and following the plating of cells in the presence or absence of epidermal growth factor and in each case, in the presence or absence of the test compound, they were incubated at […] in a humidified incubator for 14 days, when plates were stained 0.005% Crystal Violet for >1 hour, colonies were counted using a dissecting microscope.

Where [3] appears, read: HT-29, 24 hr, read-out: IC50, HT-29, colon.
Setting [4] is: HT-29, 24 h, read-out: IC50, HT-29, colon.

Where two headings read alike, the source gives them in different places. Bounds are passed on as bounds.

The IC50 is the point on the concentration scale where inhibition reaches its midpoint. As to `CC(=O)Oc1ccccc1C(=O)Oc1ccc(CO)cc1` [2-(acetyloxy)benzoic acid 4-(hydroxymethyl)phenyl ester], the IC50 in experiment [1] (setting [3]) is more than 500 µM; in experiment [2] (BXPC-3, 24 hr) it was more than 500 µM.
For `CC(=O)Oc1ccccc1C(=O)O` [Aspirin, reference compound], the IC50 in experiment [1] (setting [3]) was more than 1000 µM; in experiment [2] (BXPC-3, 24 hr) it was more than 1000 µM.
Consider `O=C(/C=C/c1ccc(O)c(O)c1)Oc1ccc(CO)cc1` [Caffeic acid 4-(hydroxymethyl)phenyl ester], for which, in experiment [1] (setting [3]), the IC50 is more than 500 µM.
Consider `O=C(O)/C=C/c1ccc(O)c(O)c1` [Caffeic acid, reference compound], for which the IC50 in experiment [1] (setting [3]) is more than 1000 µM; in experiment [2] (BXPC-3, 24 hr), more than 1000 µM.
Consider `O=C(C=Cc1ccccc1)Oc1ccc(CO)cc1` [Cinnamic acid 4-(hydroxymethyl)phenyl ester], for which the IC50 in experiment [1] (setting [3]) was determined as 150 ± 12 µM.
Compound `CC(C(=O)Oc1ccc(COc2ccc([N+](=O)[O-])cc2[N+](=O)[O-])cc1)c1ccc(-c2ccccc2)c(F)c1` (stereo not drawn) [Compound 1] showed a concentration for half-maximal inhibition (IC50) in experiment [1] (HT-29, 48 h) of approximately 73 µM. Moreover, the colony formation entry in the experiment on JB6c141 rat skin cells is “abolished colony formation”.
As to `CC(=O)Oc1ccccc1C(=O)Nc1ccc(CCl)cc1` [Compound 26, 2-(acetyloxy)benzoic acid 4-(chloromethyl)phenyl amide], in experiment [1] (setting [4]), the IC50 is 12 ± 3 µM.
With `CC(=O)Oc1ccccc1C(=O)Nc1ccc(CBr)cc1` [Compound 29, 2-(acetyloxy)benzoic acid 4-(bromomethyl)phenyl amide], the IC50 worked out at 7 ± 2 µM in experiment [1] (setting [4]) and 18 ± 3 µM in experiment [2] (BXPC-3, 24 h).
For `O=C(/C=C/c1ccc(O)c(O)c1)Oc1ccc(CO[N+](=O)[O-])cc1` [Compound 41, caffeic acid 4-(nitrooxymethyl)phenyl ester], the IC50 in experiment [1] (setting [4]) is approximately 0.5 µM.
For the compound `O=C(/C=C/c1ccc(O)c(O)c1)Oc1ccc(CCl)cc1` [Compound 47, caffeic acid 4-(chloromethyl)phenyl ester], the IC50 in experiment [1] (setting [4]) worked out at 0.25 µM.
